Experimental data published in publication PMC10142505, “Synthesis, Evaluation of Enzyme Inhibition and Redox Properties of Potential Dual COX-2 and 5-LOX Inhibitors” (Pharmaceuticals, 2023).
Marks after values point to notes of the source that are not given here.

Test system: human serum pool
Assay: Redox activity (oxy score from TOS, PAB, TAS, SHG) in vitro in human serum pool
Conditions: 37 °C, median (interquartile range); for Oxy score (OS), 2 h incubation, TBH added / Oxy score (OS), 24 h incubation, TBH added: with TBH added; for Oxy score (OS), 2 h incubation / Oxy score (OS), 24 h incubation: without TBH; for Oxy score (OS), 2 h incubation: average of five concentrations
Experimental: The remains of the serum samples were taken from healthy subjects after biochemical analysis; these subjects participated in regular medical examinations at the Military Medical Academy in Belgrade and consented to the formation of a serum pool. Neither the patients’ data nor their identities were used. Serum pool samples were prepared and aliquoted (450 µL portions) according to the routine procedure for in-house controle samples and preserved at the -80 °C until analysis. Five serial dilutions of the tested compounds (concentrations: 1000 µM, 500 µM, 250 µM, 125 µM and 62.5 µM) were added alone (50 µL) or in combination (25 µL) with oxidant TBH (25 µM) into 450 µL of serum. The compounds were dissolved in dimethyl sulfoxide (DMSO) for stock solution (1000 µM), while a PBS buffer (phosphate buffered saline) pH = 7.4 was used for serial dilutions (500 µM, 250 µM, 125 µM and 62.5 µM). Deionized water was used as a blank. DMSO and buffer pH = 7.4 were used as a control, while trolox solution (2 mmol/L) was used as a standard. All samples were incubated in duplicate for 2 h and 24 h at 37 °C.
Oxidative stress parameters (total antioxidative status (TAS), total oxidative status (TOS), total concentration of sulfhydryl group (SHG) and prooxidative–antioxidative balance (PAB)) were determined in order to calculate prooxidative score, antioxidative score and oxy score (OS). These parameters were determined in serum.
Total antioxidative status (TAS) was measured using Erel’s method, which was further optimized by Kotur-Stevuljevic et al. in 2015 [34]. ABTS (2,2-azino-bis(3-ethyl-benzthiazoline-6-sulfonic acid) is oxidized to a green-colored ABTS^+ cation by hydrogen peroxide in the acetate buffer (pH = 3.6). This stable cation is chromogen, and the presence of antioxidants in the samples causes its discoloration proportional to their concentrations. The absorbance was measured using a SPECTROstar Nano Microplate Reader (BMG Labtech, Ortenberg, Germany). The reaction was calibrated with Trolox and the TAS values are expressed as mmol trolox equivalent/L.
Total oxidative status (TOS) was measured using Erel’s method. Here, a ferrous ion-o-dianisidine complex is oxidized to ferric ion by the oxidants present in the sample. The ferric ion forms a colored complex with xylenol orange in an acidic environment and in the presence of glycerol. The intensity of the color of the formed complex is proportional to the total contents of oxidants in the sample. The absorbance was measured at 560 nm using a SPECTROstar Nano Microplate Reader (BMG Labtech, Ortenberg, Germany). The reaction was calibrated with hydrogen peroxide and the TOS values are expressed as µmol H2O2 equivalent/L.
Prooxidant–antioxidant balance (PAB) was measured according to procedures in the literature. Here, hydrogen peroxide is determined in the presence of antioxidants in the sample. Both of them (hydrogen peroxide and antioxidants (including uric acid)) react with chromogen TMB (3,3′,5,5′-tetramethylbenzidine) simultaneously. The hydrogen peroxide and chromogen reaction is enzymatically catalyzed with peroxidase, while the antioxidants–chromogen reaction is non-enzymatic. The intense blue color, produced as a result of the reaction between hydrogen peroxide and TMB, is decolorized by the reaction of the antioxidant with the TMB. The resulting color (result of two competitive reactions) is proportional to the ratio of antioxidants to prooxidants. The absorbance was measured at 450 nm. Different ratios of hydrogen peroxide and uric acid solutions were used to make a standard curve. The PAB results are expressed in hydrogen peroxide concentrations.
Total Sulfydryl Groups Content (SHG) was measured using a modified version of Ellman’s method. This method is based on the reaction between DTNB ([…]) and aliphatic thiol compounds in an alkaline environment (pH = 9.0). […]

Structure (SMILES) | Oxy score (OS), 2 h incubation, TBH added | Oxy score (OS), 2 h incubation | Oxy score (OS), 24 h incubation, TBH added | Oxy score (OS), 24 h incubation
Cc1cc(C(C)(C)C)c(O)c(C(C)(C)C)c1 [BHT, Butylated hydroxytoluene, reference compound] | 7.98 (6.77–8.81) | 3.08 (2.73–3.26) | 4.51 (4.38–7.22) | 2.62 (2.14–3.22)
Cc1ccc(-c2cc(C(F)(F)F)nn2-c2ccc(S(N)(=O)=O)cc2)cc1 [Celecoxib, reference compound] | 7.94 (6.97–8.45) | 5.66 (2.92–12.90) | 4.95 (4.57–10.25) | 2.77 (2.46–3.27)
CC(C)(C)OO [TBH, tert-butyl hydroperoxide, reference compound] | – | 6.40 (4.66–11.59) | – | 6.43 (4.73–12.00)
Cc1c(C)c2c(c(C)c1O)CCC(C)(C(=O)O)O2 (centres unmarked) [Trolox, reference compound] | – | 0.54 (−0.66–2.43) | – | 0.07 (−0.59–0.59) *
NC(N)=O [Urea, urea, reference compound] | 8.11 (7.61–8.79) | 3.48 (3.44–4.08) | 5.19 (4.96–14.00) | 4.60 (3.62–6.02)
CC(c1cc2ccccc2s1)N(O)C(N)=O (centres unmarked) [Zileuton, reference compound] | 6.87 (6.52–7.18) | 2.60 (−7.86–7.54) | 8.80 (5.71–13.66) | 3.61 (2.47–4.93)
